Measured values published in patent US20240327408A1, “COMPOUNDS CONTAINING TETRAHYDRONAPHTHYRIDINONE OR TETRAHYDROPYRIDOPYRIMIDINONE SKELETON, PREPARATION METHOD THEREFOR AND PHARMACEUTICAL USE THEREOF” (CHINA PHARMACEUTICAL UNIVERSITY, priority 2021, published 2024).

Columns and labels:
hClpP = target: T1, hClpP (Homo sapiens, UniProt Q16740); assay: activating ClpP hydrolysis of FITC-casein (fluorescence kinetic detection); type: biochemical; conditions: hClpP 1 μM, FITC-Casein 4 μM, 37° C.
T1 construct: made in house
T1 sequence (Q16740 57-277): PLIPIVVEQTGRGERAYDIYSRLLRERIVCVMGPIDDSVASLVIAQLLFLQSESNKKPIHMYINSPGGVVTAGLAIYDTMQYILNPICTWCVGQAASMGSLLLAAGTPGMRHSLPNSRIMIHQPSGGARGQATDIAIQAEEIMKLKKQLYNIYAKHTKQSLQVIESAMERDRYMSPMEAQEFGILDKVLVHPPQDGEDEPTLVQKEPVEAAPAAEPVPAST
Protocol: The specific procedures were as follows:
Test compounds were each prepared into a 100 mM stock solution in DMSO and stored. and 1 μL of stock solution of each of the compounds was taken and diluted to 10 mM by adding 9 μL of DMSO for later use.
The compounds of formula I of the present invention were each diluted at concentrations of 200 μM, 50 μM, 10 μM, 2 μM, 500 nM, 100 nM, 20 nM, and 2 nM in an assay buffer. 50 μL of each of the compounds at different concentrations was added to each well, with 2 replicate wells.
The protein was diluted to 4 μM in an assay buffer. 25 μL of protein was added to each well, and incubated at 37° C. for 30 min. The final concentration was 1 μM.
25 μL of FITC-Casein was added to each well. The final concentration was 4 μM. The mixture was immediately loaded on the machine for detection.
FITC-Casein and FITC-Casein+ClpP were used as negative controls.
The detection temperature was 37° C. The plate was shaken for 3 s. […] Kinetic parameters were set, and scanning was performed once every 1 min for 15 min.

MV4; 11 cells = assay: inhibiting the growth of MV4; 11 cells; type: cell-based; conditions: Homo sapiens

Row | SMILES | EC50 (hClpP) | IC50 (MV4; 11 cells)
1 | Cc1cc(CN2CCc3c(c(=O)n(Cc4ccccc4)c4ncccc34)C2)n(C)n1 [Compound I-26, 6-benzyl-3-((1,3-dimethyl-1H-pyrazol-5-yl)methyl)-2,3,4,6-tetrahydropyrido[3,4-c][1,8]naphthyridine-5-(1H)-one] | 10 to 100 µM | 1 to 10 µM
2 | O=c1c2c(c3cccnc3n1Cc1ccccc1)CCN(Cc1ccccn1)C2 [Compound I-27, 6-benzyl-3-(pyridin-2-ylmethyl)-2,3,4,6-tetrahydropyrido[3,4-c][1,8]naphthyridine-5-(1H)-one] | 10 to 100 µM | 1 to 10 µM
3 | O=c1c2c(c3cccnc3n1Cc1ccccc1)CCN(Cc1cccnc1)C2 [Compound I-28, 6-benzyl-3-(pyridin-3-ylmethyl)-2,3,4,6-tetrahydropyrido[3,4-c][1,8]naphthyridine-5-(1H)-one] | 10 to 100 µM | 1 to 10 µM
4 | O=c1c2c(c3cccnc3n1Cc1ccccc1)CCN(Cc1ccncc1)C2 [Compound I-29, 6-benzyl-3-(pyridin-4-ylmethyl)-2,3,4,6-tetrahydropyrido[3,4-c][1,8]naphthyridine-5-(1H)-one] | 10 to 100 µM | 1 to 10 µM
5 | O=c1c2c(c3cccnc3n1Cc1ccccc1)CCN(Cc1cc(Cl)ccn1)C2 [Compound I-30, 6-benzyl-3-((4-chloropyridin-2-yl)methyl)-2,3,4,6-tetrahydropyrido[3,4-c][1,8]naphthyridine-5-(1H)-one] | 10 to 100 µM | 1 to 10 µM
6 | Cn1ccnc1CN1CCc2c(c(=O)n(Cc3ccccc3)c3ncccc23)C1 [Compound I-31, 6-benzyl-3-((1-methyl-1H-imidazol-2-yl)methyl)-2,3,4,6-tetrahydropyrido[3,4-c][1,8]naphthyridine-5-(1H)-one] | 10 to 100 µM | 1 to 10 µM
7 | Cn1cnc(CN2CCc3c(c(=O)n(Cc4ccccc4)c4ncccc34)C2)c1 [Compound I-32, 6-benzyl-3-((1-methyl-1H-imidazol-4-yl)methyl)-2,3,4,6-tetrahydropyrido[3,4-c][1,8]naphthyridine-5-(1H)-one] | 10 to 100 µM | 1 to 10 µM
8 | Cn1cncc1CN1CCc2c(c(=O)n(Cc3ccccc3)c3ncccc23)C1 [Compound I-33, 6-benzyl-3-((1-methyl-1H-imidazol-5-yl)methyl)-2,3,4,6-tetrahydropyrido[3,4-c][1,8]naphthyridine-5-(1H)-one] | 10 to 100 µM | 1 to 10 µM
9 | Cc1noc(C)c1CN1CCc2c(c(=O)n(Cc3ccccc3)c3ncccc23)C1 [Compound I-34, 6-benzyl-3-((3,5-dimethylisoxazol-4-yl)methyl)-2,3,4,6-tetrahydropyrido[3,4-c][1,8]naphthyridine-5-(1H)-one] | 10 to 100 µM | 1 to 10 µM
10 | Cc1ncc(CN2CCc3c(c(=O)n(Cc4ccccc4)c4ncccc34)C2)s1 [Compound I-35, 6-benzyl-3-((2-methylthiazol-5-yl)methyl)-2,3,4,6-tetrahydropyrido[3,4-c][1,8]naphthyridine-5-(1H)-one] | 10 to 100 µM | 1 to 10 µM
11 | O=c1c2c(c3cccnc3n1CC1CC1)CCN(Cc1ccccc1)C2 [Compound I-36, 3-benzyl-6-(cyclopropylmethyl)-2,3,4,6-tetrahydropyrido[3,4-c][1,8]naphthyridine-5-(1H)-one] | 10 to 100 µM | 1 to 10 µM
12 | O=c1c2c(c3cccnc3n1CC1CCC1)CCN(Cc1ccccc1)C2 [Compound I-37, 3-benzyl-6-(cyclobutylmethyl)-2,3,4,6-tetrahydropyrido[3,4-c][1,8]naphthyridine-5-(1H)-one] | 10 to 100 µM | 1 to 10 µM
13 | O=c1c2c(c3cccnc3n1CC1CCCC1)CCN(Cc1ccccc1)C2 [Compound I-38, 3-benzyl-6-(cyclopentylmethyl)-2,3,4,6-tetrahydropyrido[3,4-c][1,8]naphthyridine-5-(1H)-one] | 10 to 100 µM | 1 to 10 µM
14 | O=c1c2c(c3cccnc3n1CC1CCCCC1)CCN(Cc1ccccc1)C2 [Compound I-39, 3-benzyl-6-(cyclohexylmethyl)-2,3,4,6-tetrahydropyrido[3,4-c][1,8]naphthyridine-5-(1H)-one] | 10 to 100 µM | 0.91 µM
15 | O=c1c2c(c3cccnc3n1Cc1ccccc1F)CCN(Cc1ccccc1)C2 [Compound I-40, 3-benzyl-6-(2-fluorobenzyl)-2,3,4,6-tetrahydropyrido[3,4-c][1,8]naphthyridine-5-(1H)-one] | 1 to 10 µM | < 1 µM
16 | O=c1c2c(c3cccnc3n1Cc1ccccc1Cl)CCN(Cc1ccccc1)C2 [Compound I-41, 3-benzyl-6-(2-chlorobenzyl)-2,3,4,6-tetrahydropyrido[3,4-c][1,8]naphthyridine-5-(1H)-one] | 1 to 10 µM | < 1 µM

Row | SMILES | EC50 (hClpP) | IC50 (MV4; 11 cells)
17 | O=c1c2c(c3cccnc3n1Cc1ccccc1Br)CCN(Cc1ccccc1)C2 [Compound I-42, 3-benzyl-6-(2-bromobenzyl)-2,3,4,6-tetrahydropyrido[3,4-c][1,8]naphthyridine-5-(1H)-one] | 1 to 10 µM | < 1 µM
18 | Cc1ccccc1Cn1c(=O)c2c(c3cccnc31)CCN(Cc1ccccc1)C2 [Compound I-43, 3-benzyl-6-(2-methylbenzyl)-2,3,4,6-tetrahydropyrido[3,4-c][1,8]naphthyridine-5-(1H)-one] | 1 to 10 µM | < 1 µM
19 | CCc1ccccc1Cn1c(=O)c2c(c3cccnc31)CCN(Cc1ccccc1)C2 [Compound I-44, 3-benzyl-6-(2-ethylbenzyl)-2,3,4,6-tetrahydropyrido[3,4-c][1,8]naphthyridine-5-(1H)-one] | 1 to 10 µM | < 1 µM
20 | COc1ccccc1Cn1c(=O)c2c(c3cccnc31)CCN(Cc1ccccc1)C2 [Compound I-45, 3-benzyl-6-(2-methoxybenzyl)-2,3,4,6-tetrahydropyrido[3,4-c][1,8]naphthyridine-5-(1H)-one] | 1 to 10 µM | < 1 µM
21 | O=c1c2c(c3cccnc3n1Cc1cccc(F)c1)CCN(Cc1ccccc1)C2 [Compound I-46, 3-benzyl-6-(3-fluorobenzyl)-2,3,4,6-tetrahydropyrido[3,4-c][1,8]naphthyridine-5-(1H)-one] | < 1 µM | < 1 µM
22 | O=c1c2c(c3cccnc3n1Cc1cccc(Cl)c1)CCN(Cc1ccccc1)C2 [Compound I-47, 3-benzyl-6-(3-chlorobenzyl)-2,3,4,6-tetrahydropyrido[3,4-c][1,8]naphthyridine-5-(1H)-one] | < 1 µM | < 1 µM
23 | O=c1c2c(c3cccnc3n1Cc1cccc(Br)c1)CCN(Cc1ccccc1)C2 [Compound I-48, 3-benzyl-6-(3-bromobenzyl)-2,3,4,6-tetrahydropyrido[3,4-c][1,8]naphthyridine-5-(1H)-one] | < 1 µM | < 1 µM
24 | Cc1cccc(Cn2c(=O)c3c(c4cccnc42)CCN(Cc2ccccc2)C3)c1 [Compound I-49, 3-benzyl-6-(3-methylbenzyl)-2,3,4,6-tetrahydropyrido[3,4-c][1,8]naphthyridine-5-(1H)-one] | < 1 µM | < 1 µM
25 | CCc1cccc(Cn2c(=O)c3c(c4cccnc42)CCN(Cc2ccccc2)C3)c1 [Compound I-50, 3-benzyl-6-(3-ethylbenzyl)-2,3,4,6-tetrahydropyrido[3,4-c][1,8]naphthyridine-5-(1H)-one] | < 1 µM | < 1 µM
26 | COc1cccc(Cn2c(=O)c3c(c4cccnc42)CCN(Cc2ccccc2)C3)c1 [Compound I-51, 3-benzyl-6-(3-methoxybenzyl)-2,3,4,6-tetrahydropyrido[3,4-c][1,8]naphthyridine-5-(1H)-one] | < 1 µM | < 1 µM
27 | O=c1c2c(c3cccnc3n1Cc1ccc(F)cc1)CCN(Cc1ccccc1)C2 [Compound I-52, 3-benzyl-6-(4-fluorobenzyl)-2,3,4,6-tetrahydropyrido[3,4-c][1,8]naphthyridine-5-(1H)-one] | < 1 µM | < 1 µM
28 | O=c1c2c(c3cccnc3n1Cc1ccc(Cl)cc1)CCN(Cc1ccccc1)C2 [Compound I-53, 3-benzyl-6-(4-chlorobenzyl)-2,3,4,6-tetrahydropyrido[3,4-c][1,8]naphthyridine-5-(1H)-one] | < 1 µM | < 1 µM
29 | O=c1c2c(c3cccnc3n1Cc1ccc(Br)cc1)CCN(Cc1ccccc1)C2 [Compound I-54, 3-benzyl-6-(4-bromobenzyl)-2,3,4,6-tetrahydropyrido[3,4-c][1,8]naphthyridine-5-(1H)-one] | < 1 µM | < 1 µM
30 | Cc1ccc(Cn2c(=O)c3c(c4cccnc42)CCN(Cc2ccccc2)C3)cc1 [Compound I-55, 3-benzyl-6-(4-methylbenzyl)-2,3,4,6-tetrahydropyrido[3,4-c][1,8]naphthyridine-5-(1H)-one] | < 1 µM | < 1 µM
31 | CCc1ccc(Cn2c(=O)c3c(c4cccnc42)CCN(Cc2ccccc2)C3)cc1 [Compound I-56, 3-benzyl-6-(4-ethylbenzyl)-2,3,4,6-tetrahydropyrido[3,4-c][1,8]naphthyridine-5-(1H)-one] | < 1 µM | < 1 µM
32 | COc1ccc(Cn2c(=O)c3c(c4cccnc42)CCN(Cc2ccccc2)C3)cc1 [Compound I-57, 3-benzyl-6-(4-methoxybenzyl)-2,3,4,6-tetrahydropyrido[3,4-c][1,8]naphthyridine-5-(1H)-one] | < 1 µM | < 1 µM
